Source: paper PMC5883364 (Malaria Journal, 2018)
“Also recorded” adds a separate entry of the source. Read-outs that look alike come from different tables or passages of the source.

What was measured:
[1] = system: P. falciparum 3D7 (chloroquine and mefloquine sensitive); assay: SYBR Green I assay, IC50, strain 3D7; type: cell-based, Plasmodium falciparum
Method: (§1) Staging and parasitaemia were determined by light microscopy of Giemsa-stained thin blood smears. Anti-malarial activity was determined using the SYBR Green I assay, as previously described.

[2] = system: HepG2-A16 (human hepatoma) cells; conditions: for Selectivity index LD50 (HepG2)/IC50 (3D7): HepG2 vs 3D7; for Selectivity index LD50 (HepG2)/IC50 (Dd2): HepG2 vs Dd2; for LD50 HepG2: human, 48 h; for Selectivity index LD50 (HepG2)/IC50 (IPC5202): HepG2 vs IPC5202
Method: (§2) Cytotoxicity was assessed on the mammalian cell lines HepG2-A16 (human hepatoma) and V79 (Chinese hamster lung), using a MTT based assay, as previously described. […] V79 and HepG2 cell lines were incubated for 24 and 48 h, respectively (media changed at 24 h intervals). Absorbance was read at 570 nm on a multi-mode microplate reader (Triad, Dynex Technologies), to produce a log dose-dependence curve. The LD50 value for each compound was estimated by non-linear interpolation of the dose-dependence curve (GraphPad Software).

[3] = system: V79 (Chinese hamster lung) cells; conditions: for LD50 V79: Chinese hamster, 24 h; for Selectivity index LD50 (V79)/IC50 (3D7): V79 vs 3D7; for Selectivity index LD50 (V79)/IC50 (Dd2): V79 vs Dd2; for Selectivity index LD50 (V79)/IC50 (IPC4912): V79 vs IPC4912; for Selectivity index LD50 (V79)/IC50 (IPC5202): V79 vs IPC5202
Method: as §2

[4] = system: P. falciparum Dd2 (chloroquine-resistant, mefloquine-resistant); assay: SYBR Green I assay, IC50, strain Dd2; type: cell-based, Plasmodium falciparum; conditions: for Resistance Index RIa = IC50 (Dd2)/IC50 (3D7): Dd2 vs 3D7; for antiplasmodial activity of building blocks in words: tested separately, Dd2 and 3D7 (Additional file 1)
Method: as §1

[5] = system: P. falciparum IPC4912 (artemisinin-resistant, K13 I543T); assay: SYBR Green I assay, IC50, strain IPC4912; type: cell-based, Plasmodium falciparum; conditions: for Resistance Index RIc = IC50 (IPC4912)/IC50 (3D7): IPC4912 vs 3D7; for IC50: Plasmodium falciparum, read-out: P. falciparum IC50 ± SD, IPC4912
Method: Staging and parasitaemia were determined by light microscopy of Giemsa-stained thin blood smears. Anti-malarial activity was determined using the SYBR Green I assay, as previously described. Briefly, early ring stage parasites (> 80% of rings) were challenged with a 1:3 serial dilution of each compound, in concentrations ranging from 10,000–0.169 nM. Fluorescence intensity was measured with a multi-mode microplate reader (Triad, Dynex Technologies), with excitation and emission wavelengths of 485 and 535 nm, respectively, and analysed by nonlinear regression using GraphPad Prism to determine IC50 values.

[6] = system: P. falciparum IPC5202 (artemisinin-resistant, K13 R539T); assay: SYBR Green I assay, IC50, strain IPC5202; type: cell-based, Plasmodium falciparum; conditions: for Resistance Index RIb = IC50 (IPC5202)/IC50 (3D7): IPC5202 vs 3D7; for IC50: Plasmodium falciparum, read-out: P. falciparum IC50 ± SD, IPC5202, strain IPC5202
Method: as §1

[7] = Solubility remark in the IC50 table; type: physicochemical; set-up: key: ?: Low solubility; conditions: symbol printed in the IC50 cells
Description: Supplement 12936_2018_2281_MOESM1_ESM.docx, table 1: Table 1: Antiplasmodial activity in vitro (IC50) against resistant and sensitive P. falciparum strains. | column: P. falciparum IC50 ± SD (nM)

[8] = system: Plasmodium berghei NK65; assay: Peters' 4-day suppressive test in Swiss albino mice; type: in vivo; conditions: 50 mg/kg/day oral for 4 days; for inhibition in vivo at 50 mg/kg/day: Plasmodium berghei
Method: In vivo tests were performed following the Guidelines for Ethical Conduct in The Care and Use of Animals of the Federal University of Rio Grande do Norte—Brazil (CEUA/UFRN/46/2013). Evaluation of anti-malarial activity in vivo was carried out using the Peters’ 4-day suppressive test, with modifications, as previously described. Swiss albino mice were infected with Plasmodium berghei NK65 and randomly allocated to groups of five animals. Animals were treated with 50 mg/kg/day of each of the tested compounds (dissolved in PBS containing 1% DMSO), administrated orally, for four consecutive days. The control group was treated with a solution of PBS/1% DMSO. On days 5 (D5), 7 (D7) and 10 (D10) after parasite inoculation, tail blood smears were Giemsa-stained and examined microscopically to estimate parasitaemia. Acute toxicity testing was carried out to determine adverse effects due to compounds (including weight loss, hair appearance, skin wounds and behavioural changes), and recorded daily.

[9] = Plasmodium falciparum, 3D7, strain 3D7, read-out: P. falciparum IC50 ± SD, 3D7
[10] = Plasmodium falciparum, DD2, strain Dd2, read-out: P. falciparum IC50 ± SD, Dd2
[11] = Plasmodium falciparum, 3D7, read-out: P. falciparum IC50 ± SD, 3D7

Row | SMILES | IC50 [1, 9] [nM] | Selectivity index LD50 (HepG2)/IC50 (3D7) [2] | Selectivity index LD50 (HepG2)/IC50 (Dd2) [2] | LD50 HepG2 [2] [mM] | LD50 V79 [3] [mM] | Selectivity index LD50 (V79)/IC50 (3D7) [3] | Selectivity index LD50 (V79)/IC50 (Dd2) [3] | IC50 [4, 10] [nM] | Resistance Index RIa = IC50 (Dd2)/IC50 (3D7) [4] | also measured
1 | NCC1CCC2(CC1)OOC1(O2)C2CC3CC(C2)CC1C3 (centres unmarked) [LC95] | 29.6 ± 5.18 | 3441.7 | 1784.7 | 1.0 | > 1 | 3441.7 | 1784.7 | 56.3 ± 1 | – | –
2 | CC(C)(C)OC(=O)NCCCCN [LC64, tert-butyl(4-aminobutyl)carbamate] | > 10000 | – | – | 1.0 | > 1 | – | – | > 10000 | – | –
3 | CCN(CC)CCCC(C)Nc1ccnc2cc(Cl)ccc12 (centres unmarked) [CQ, chloroquine, reference compound] | – | – | – | – | – | – | – | – | – | IC50 [1, 11]: 15.8 ± 0.8 nM; IC50 ([4]; Plasmodium falciparum, DD2, read-out: P. falciparum IC50 ± SD, Dd2, strain Dd2): 340 ± 20.7 nM; IC50 ([4]; read-out: P. falciparum IC50 ± SD, Dd2, strain Dd2): 340 ± 20.7 nM
4 | C[C@H]1[C@H](OC(=O)CCC(=O)O)O[C@@H]2O[C@@]3(C)CC[C@H]4[C@H](C)CC[C@@H]1[C@@]24OO3 [ATN, artesunate, reference compound] | 5.1 ± 0.1 | – | – | – | – | – | – | 4.6 ± 1.4 | 0.9 | Resistance Index RIc = IC50 (IPC4912)/IC50 (3D7) [5]: 0.76; IC50 [5]: 3.9 ± 1.2 nM; Resistance Index RIb = IC50 (IPC5202)/IC50 (3D7) [6]: 0.67; IC50 [6]: 3.4 ± 0.1 nM
5 | NCCCCNC(=O)C1CCC2(CC1)OOC1(O2)C2CC3CC(C2)CC1C3 (centres unmarked) [MIS15] | – | – | – | 1.0 | > 1 | – | – | – | – | solubility remark (no IC50 obtained) [7]: ?
6 | NCCCCNC1CCC2(CC1)OOC1(O2)C2CC3CC(C2)CC1C3 (centres unmarked) [MIS16] | – | – | – | 1.0 | > 1 | – | – | – | – | solubility remark (no IC50 obtained) [7]: ?
7 | Cn1nnc(N)n1 [LC126II, 2-methyl-2H-tetrazole-5-amine] | – | – | – | – | – | – | – | – | – | IC50 [1, 11]: > 10000 nM; IC50 ([4]; Plasmodium falciparum, DD2, read-out: P. falciparum IC50 ± SD, Dd2): > 10000 nM; antiplasmodial activity of building blocks in words [4]: devoid of antiplasmodial activity
8 | O=S1(=O)N=C(Cl)c2ccccc21 [LC60, 3-chloro-1,2-benzisothiazole-1,1-dioxide] | > 10000 | – | – | 1.0 | > 1 | – | – | > 10000 | – | –
9 | O=c1nn[nH]n1-c1ccccc1 [LC133, 1-phenyl-1H-tetrazol-5-one] | > 10000 | – | – | 1.0 | > 1 | – | – | > 10000 | – | antiplasmodial activity of building blocks in words [4]: devoid of antiplasmodial activity
10 | O=C(Nc1nnn[nH]1)C1CCC2(CC1)OOC1(O2)C2CC3CC(C2)CC1C3 (centres unmarked) [LC142] | 117 ± 33.2 | 8568.9 | 9354.5 | 1.0 | > 1 | 8568.9 | 9354.5 | 107 ± 45.4 | 0.9 | –
11 | c1ccc(-n2nnnc2OCC2CCC3(CC2)OOC2(O3)C3CC4CC(C3)CC2C4)cc1 (centres unmarked) [LC132] | – | 41322.3 | 37596.9 | 1.0 | > 1 | 41322.3 | 37596.9 | – | 1.1 | Resistance Index RIc = IC50 (IPC4912)/IC50 (3D7) [5]: 0.81; IC50 [5]: 19.7 ± 3.4 nM; Resistance Index RIb = IC50 (IPC5202)/IC50 (3D7) [6]: 1.03; IC50 [6]: 25 ± 7.4 nM; Selectivity index LD50 (HepG2)/IC50 (IPC5202) [2]: 40000.0; Selectivity index LD50 (V79)/IC50 (IPC4912) [3]: 50761.4; Selectivity index LD50 (V79)/IC50 (IPC5202) [3]: 40000.0; in vivo outcome against P. berghei in words ([8]; followed to day 10): recrudescence also occurred on day 10; also recorded: allowed recrudescence on day 10; inhibition in vivo at 50 mg/kg/day ([8]; 120 h, mice, day 5, vs control group, read-out: % inhibition of parasite growth, Day 5 (converted)): 100%; inhibition in vivo at 50 mg/kg/day ([8]; 168 h, mice, day 7, vs control group, read-out: % inhibition of parasite growth, Day 7 (converted)): 100%; inhibition in vivo at 50 mg/kg/day ([8]; 240 h, mice, day 10, vs control group, read-out: % inhibition of parasite growth, Day 10 (converted)): 94.5%; Mean parasitaemia ± SD, Day 5 ([8]; mice, day 5): 0%; Mean parasitaemia ± SD, Day 7 ([8]; mice, day 7): 0%; Mean parasitaemia ± SD, Day 10 ([8]; mice, day 10): 0.31 ± 0.10%; times less active than LC131 or LC136 ([4]; in vitro, strain not stated): up to 12
12 | C[C@@H]1CC[C@H]2[C@@H](C)C(=O)O[C@@H]3O[C@@]4(C)CC[C@@H]1[C@]32OO4 [ART, artemisinin, reference compound] | 4 ± 0.1 | 104844.6 | 168515.4 | 0.4 | > 0.4 | 104844.6 | 168515.4 | 2.5 ± 0.1 | – | Resistance Index RIc = IC50 (IPC4912)/IC50 (3D7) [5]: 3.32; IC50 [5]: 13.3 ± 2.2 nM; IC50 ([1]; strain 3D7, read-out: P. falciparum IC50 ± SD, 3D7): 3.97 ± 0.08 nM; Resistance Index RIb = IC50 (IPC5202)/IC50 (3D7) [6]: 8.32; IC50 [6]: 33.3 ± 8 nM; Selectivity index LD50 (HepG2)/IC50 (IPC4912) ([2]; HepG2 vs IPC4912): 31295.7; Selectivity index LD50 (HepG2)/IC50 (IPC5202) [2]: 12499.5; Selectivity index LD50 (V79)/IC50 (IPC4912) [3]: 31295.7; Selectivity index LD50 (V79)/IC50 (IPC5202) [3]: 12499.5; IC50 ([4]; strain Dd2, read-out: P. falciparum IC50 ± SD, Dd2): 2.47 ± 0.1 nM
13 | c1ccc(N2N=NNC23OOC2(O3)C3CC4CC(C3)CC2C4)cc1 (centres unmarked) [LC28] | 3660 ± 1490 | 273.3 | 887.3 | 1.0 | > 1 | 273.3 | 887.3 | 1130 ± 188 | 0.3 | –
